Test results reported in patent publication US6906198B1, “Antipicornaviral compounds, their preparation and use” (Agouron Pharmaceuticals, Inc., priority 1998, dated 2005).
Read-outs that look alike come from different tables or passages of the source.

Experiments:
HRV serotype 30 = assay: Antirhinoviral H1-HeLa cell culture assay (XTT), HRV-30; type: cell-based; details: Human rhinovirus sp., H1-HeLa cells
Experimental: (§1) Antirhinoviral H1-HeLa Cell Culture Assay
(§2) In this cell protection assay, the ability of compounds to protect cells against HRV infection was measured by the XTT dye reduction method, which is described in Weislow et al., J. Natl. Cancer Inst. 1989, vol. 81, 577-586.
(§3) H1-HeLa cells were infected with HRV-14 at a multiplicity of infection (m.o.i.) of 0.13 (virus particles/cell) or mock-infected with medium only. Infected or mock-infected cells were resuspended at 8×10^5 cells per mL, and incubated with appropriate concentrations of the compounds to be tested. Two days later, XTT/PMS was added to test plates and the amount of formazan produced was quantified spectrophotometrically at 450/650 nm. The EC50 value was calculated as the concentration of compound that increased the percentage of formazan production in compound-treated, virus-infected cells to 50% of that produced by compound-free, mock-infected cells. The 50% cytotoxic dose (CC50) was calculated as the concentration of compound that decreased the percentage of formazan produced in compound-treated, mock-infected cells to 50% of that produced by compound-free, mock-infected cells. The therapeutic index (TI) was calculated by dividing the CC50 value by the EC50 value. […]

[1] = tested on: Coxsackievirus type A-21 (CAV-21); assay: Anticoxsackieviral cell culture assay (XTT), CAV-21; type: cell-based; details: Coxsackievirus, H1-HeLa
Experimental: (§4) Anticoxsackieviral Cell Culture Assay
(§5) Coxsackievirus types A-21 (CAV-21) and B3 (CVB-3) were purchased from American Type Culture Collection (ATCC, Rockville, Md.). Virus stocks were propagated and antiviral assays were performed in H1-HeLa cells (ATCC). Cells were grown in minimal essential medium with 10% fetal bovine serum (Life Technologies, Gaithersburg, Md.).
(§6) The ability of compounds to protect cells against either CAV-21 or CVB-3 infection was measured by the XTT dye reduction method. This method is described in Weislow et al., J. Natl. Cancer Inst. 1989, vol. 81, 577-586. H1-HeLa cells were infected with CAV-21 or CVB-3 at a multiplicity of infection (m.o.i.) of 0.025 or 0.075, respectively, or mock-infected with medium only. H1-HeLa cells were plated at 4×10^4 cells per well in a 96-well plate and incubated with appropriate concentrations of the test compound. One day (CVB-3) or two days (CAV-21) later, XTT/PMS was added to test plates and the amount of formazan produced was quantified spectrophotometrically at 450/650 nm. The EC50 was calculated as the concentration of compound that increased the formazan production in compound-treated, virus-infected cells to 50% of that produced by compound-free, uninfected cells. […] The therapeutic index (TI) was calculated by dividing the CC50 by the EC50. […]

HRV serotype 3 = assay: Antirhinoviral H1-HeLa cell culture assay (XTT), HRV-3; type: cell-based; details: Human rhinovirus sp., H1-HeLa cells
Experimental: as §1, §2, §3

HRV serotype 10 = assay: Antirhinoviral H1-HeLa cell culture assay (XTT), HRV-10; type: cell-based, human rhinovirus; details: Human rhinovirus sp., H1-HeLa cells
Experimental: as §1, §2
(§7) H1-HeLa cells were infected with HRV-14 at a multiplicity of infection (m.o.i.) of 0.13 (virus particles/cell) or mock-infected with medium only. Infected or mock-infected cells were resuspended at 8×10^5 cells per mL, and incubated with appropriate concentrations of the compounds to be tested. Two days later, XTT/PMS was added to test plates and the amount of formazan produced was quantified spectrophotometrically at 450/650 nm. The EC50 value was calculated as the concentration of compound that increased the percentage of formazan production in compound-treated, virus-infected cells to 50% of that produced by compound-free, mock-infected cells. The 50% cytotoxic dose (CC50) was calculated as the concentration of compound that decreased the percentage of formazan produced in compound-treated, mock-infected cells to 50% of that produced by compound-free, mock-infected cells. The therapeutic index (TI) was calculated by dividing the CC50 value by the EC50 value.
(§8) All strains of human rhinovirus (HRV) for use in this assay were purchased from American Type Culture Collection (ATCC), except for HRV serotype-14 (produced from the infectious cDNA clone constructed by Dr. Robert Rueckert, Institute for Molecular Virology, University of Wisconsin, Madison, Wis.). HRV stocks were propagated and viral assays were performed in H1-HeLa cells (ATCC). Cells were grown in minimal essential medium with 10% fetal bovine serum, available from Life Technologies (Gaithersburg, Md.).
(§9) The compounds were tested against control compounds WIN 51711, WIN 52084, and WIN 54954 (obtained from Sterling-Winthrop Pharmaceuticals), Pirodavir (obtained from Janssen Pharmaceuticals), and Pleconaril (prepared according to the method described in Diana et al., J. Med. Chem 1995, vol. 38, 1355). […]

HRV-14 = assay: Antirhinoviral H1-HeLa cell culture assay (XTT), HRV-14; type: cell-based, human rhinovirus; details: Rhinovirus B, HRV14
Experimental: as §1, §2, §7, §8
The compounds were tested against control compounds WIN 51711, WIN 52084, and WIN 54954 (obtained from Sterling-Winthrop Pharmaceuticals), Pirodavir (obtained from Janssen Pharmaceuticals), and Pleconaril (prepared according to the method described in Diana et al., J. Med. Chem 1995, vol. 38, 1355). Antiviral data obtained for the test compounds are shown in Tables 1 and 3, where all data are for HRV serotype-14 unless otherwise noted in parentheses.

HRV serotype 13 = assay: Antirhinoviral H1-HeLa cell culture assay (XTT), HRV-13; type: cell-based; details: Human rhinovirus sp., H1-HeLa cells
Experimental: as §1, §2, §3

HRV serotype 39 = assay: Antirhinoviral H1-HeLa cell culture assay (XTT), HRV-39; type: cell-based; details: Human rhinovirus sp., H1-HeLa cells
Experimental: as §1, §2, §3

HRV serotype 1A = assay: Antirhinoviral H1-HeLa cell culture assay (XTT), HRV-1A; type: cell-based, human rhinovirus; details: Human rhinovirus sp., H1-HeLa cells
Experimental: as §1, §2, §7, §8, §9

[2] = tested on: enterovirus type 70 (EV 70); assay: Anti-enteroviral cell culture assay (XTT), EV 70; type: cell-based; details: Enterovirus D, MRC5
Experimental: (§10) Anti-Echoviral and -Enteroviral Cell Culture Assays
(§11) Echovirus type 11 (EV 11) and enterovirus type 70 (EV 70) were purchased from ATCC (Rockville, Md.). Virus stocks were propagated and antiviral assays were performed in MRC-5 cells (ATCC). Cells were grown in minimal essential medium with 10% fetal bovine serum (Life Technologies, Gaithersburg, Md.).
(§12) The ability of compounds to protect cells against either EV 11 or EV 70 infection was measured by the XTT dye reduction method (Weislow et al., J. Natl. Cancer Inst. 1989, vol. 81, 577-586). MRC-5 cells were infected with EV 11 or EV 70 at an m.o.i. of 0.003 or 0.004, respectively, or mock-infected with medium only. Infected or uninfected cells were added at 1×10^4 cells per well and incubated with appropriate concentrations of compound. Four days later, XTT/PMS was added to test plates, and the amount of formazan produced was quantified spectrophotometrically at 450/650 nm. The EC50 was calculated as the concentration of compound that increased the formazan production in compound-treated, virus-infected cells to 50% of that produced by compound-free, uninfected cells. […] The therapeutic index (TI) was calculated by dividing the CC50 by the EC50. […]

HRV serotype 89 = assay: Antirhinoviral H1-HeLa cell culture assay (XTT), HRV-89; type: cell-based; details: Human rhinovirus sp., H1-HeLa cells
Experimental: as §1, §2, §3

HRV serotype 87 = assay: Antirhinoviral H1-HeLa cell culture assay (XTT), HRV-87; type: cell-based; details: Human rhinovirus sp., H1-HeLa cells
Experimental: as §1, §2, §3

[3] = tested on: Coxsackievirus type B3 (CVB-3); assay: Anticoxsackieviral cell culture assay (XTT), CVB-3; type: cell-based; details: Coxsackievirus, H1-HeLa
Experimental: as §4, §5, §6

HRV serotype 38 = assay: Antirhinoviral H1-HeLa cell culture assay (XTT), HRV-38; type: cell-based; details: Human rhinovirus sp., H1-HeLa cells
Experimental: as §1, §2, §3

[4] = Cytotoxicity in uninfected H1-HeLa cells (anticoxsackieviral assay, XTT); type: cell-based; details: human; 50% cytotoxic dose, uninfected H1-HeLa cells (Table 4)
Experimental: as §5
The ability of compounds to protect cells against either CAV-21 or CVB-3 infection was measured by the XTT dye reduction method. This method is described in Weislow et al., J. Natl. Cancer Inst. 1989, vol. 81, 577-586. H1-HeLa cells were infected with CAV-21 or CVB-3 at a multiplicity of infection (m.o.i.) of 0.025 or 0.075, respectively, or mock-infected with medium only. H1-HeLa cells were plated at 4×10^4 cells per well in a 96-well plate and incubated with appropriate concentrations of the test compound. One day (CVB-3) or two days (CAV-21) later, XTT/PMS was added to test plates and the amount of formazan produced was quantified spectrophotometrically at 450/650 nm. The EC50 was calculated as the concentration of compound that increased the formazan production in compound-treated, virus-infected cells to 50% of that produced by compound-free, uninfected cells. The 50% cytotoxic dose (CC50) was calculated as the concentration of compound that decreased formazan production in compound-treated, uninfected cells to 50% of that produced in compound-free, uninfected cells. The therapeutic index (TI) was calculated by dividing the CC50 by the EC50.

HRV serotype 17 = assay: Antirhinoviral H1-HeLa cell culture assay (XTT), HRV-17; type: cell-based; details: Human rhinovirus sp., H1-HeLa cells
Experimental: as §1, §2, §3

HRV serotype 12 = assay: Antirhinoviral H1-HeLa cell culture assay (XTT), HRV-12; type: cell-based; details: Human rhinovirus sp., H1-HeLa cells
Experimental: as §1, §2, §3

HRV serotype 2 = assay: Antirhinoviral H1-HeLa cell culture assay (XTT), HRV-2; type: cell-based; details: Human rhinovirus sp., H1-HeLa cells
Experimental: as §1, §2, §3

[5] = Cytotoxicity in mock-infected H1-HeLa cells (antirhinoviral assay, XTT); type: cell-based; details: human, 50% cytotoxic dose
Experimental: as §7, §8

HRV serotype 16 = assay: Antirhinoviral H1-HeLa cell culture assay (XTT), HRV-16; type: cell-based; details: Human rhinovirus sp., H1-HeLa cells
Experimental: as §1, §2, §3

[6] = Cytotoxicity in uninfected MRC-5 cells (anti-echoviral/-enteroviral assay, XTT); type: cell-based; details: human, 50% cytotoxic dose
Experimental: as §11
The ability of compounds to protect cells against either EV 11 or EV 70 infection was measured by the XTT dye reduction method (Weislow et al., J. Natl. Cancer Inst. 1989, vol. 81, 577-586). MRC-5 cells were infected with EV 11 or EV 70 at an m.o.i. of 0.003 or 0.004, respectively, or mock-infected with medium only. Infected or uninfected cells were added at 1×10^4 cells per well and incubated with appropriate concentrations of compound. Four days later, XTT/PMS was added to test plates, and the amount of formazan produced was quantified spectrophotometrically at 450/650 nm. The EC50 was calculated as the concentration of compound that increased the formazan production in compound-treated, virus-infected cells to 50% of that produced by compound-free, uninfected cells. The 50% cytotoxic dose (CC50) was calculated as the concentration of compound that decreased formazan production in compound-treated, uninfected cells to 50% of that produced in compound-free, uninfected cells. The therapeutic index (TI) was calculated by dividing the CC50 by the EC50.

HRV serotype 25 = assay: Antirhinoviral H1-HeLa cell culture assay (XTT), HRV-25; type: cell-based; details: Human rhinovirus sp., H1-HeLa cells
Experimental: as §1, §2, §3

[7] = tested on: Echovirus type 11 (EV 11); assay: Anti-echoviral cell culture assay (XTT), EV 11; type: cell-based; details: Enterovirus B, MRC5
Experimental: as §10, §11, §12

HRV serotype 9 = assay: Antirhinoviral H1-HeLa cell culture assay (XTT), HRV-9; type: cell-based; details: Human rhinovirus sp., H1-HeLa cells
Experimental: as §1, §2, §3

CCOC(=O)/C=C/[C@H](C[C@@H]1CCNC1=O)NC(=O)[C@H](Cc1ccc(F)cc1)NC(=O)[C@@H](NC(=O)c1cc(C)on1)C(C)C [(A-5), Ethyl-3-{(5′-Methylisoxazole-3′-carbonyl)-L-Val-L-(4-F-Phe)-L-((S)-Pyrrol-Ala)}-E-Propenoate]
EC50 (HRV serotype 30): 60 nM | EC50 [1]: 230 nM | EC50 (HRV serotype 3): 50 nM | EC50 (HRV serotype 10): 50 nM | EC50 (HRV-14; HRV serotype-14, H1-HeLa cells (Table 1), read-out: Cell Protection EC50): 5 nM | EC50 (HRV-14; HRV serotype-14, H1-HeLa cells (Table 3), read-out: EC50): 5 nM | EC50 (HRV serotype 13): 20 nM | EC50 (HRV serotype 39): 20 nM | EC50 (HRV serotype 1A): 30 nM | EC50 [2]: 40 nM | EC50 (HRV serotype 89): 20 nM | EC50 (HRV serotype 87): 210 nM | EC50 [3]: 1000 nM | EC50 (HRV serotype 38): 130 nM | CC50 [4]: > 10000 nM | EC50 (HRV serotype 17): 20 nM | EC50 (HRV serotype 12): 60 nM | EC50 (HRV serotype 2): 10 nM | CC50 at 2 days [5]: > 10000 nM | melting point: 219 to 220 °C | EC50 (HRV serotype 16): 20 nM | CC50 at 4 days [6]: > 10000 nM | EC50 (HRV serotype 25): 180 nM | EC50 [7]: 80 nM | EC50 (HRV serotype 9): 40 nM

CCOC(=O)/C=C/[C@H](C[C@@H]1CCNC1=O)NC(=O)[C@H](Cc1ccc(F)cc1)NC(=O)[C@@H](NC(=O)c1cc(C)on1)C(C)(C)C [(A-7), Ethyl-3-{(5′-Methylisoxazole-3′-carbonyl)-L-α-(t-Butyl-Gly)-L-(4-F-Phe)-L-((S)-Pyrrol-Ala)}-E-Propenoate]
EC50 (HRV serotype 30): 90 nM | EC50 (HRV serotype 87): 590 nM | EC50 (HRV serotype 38): 170 nM | EC50 (HRV serotype 12): 70 nM | CC50 at 2 days [5]: > 10000 nM | EC50 (HRV serotype 25): 200 nM
